The subject of series [1] is male New-Zealand rabbits. The series can be described thus: Hypotensive activity in rabbits after topical administration (intraocular pressure). It is filed as in vivo. The conditions noted are these: rabbit; for effect on pressure in the contralateral eye (evidence of an action at the level of the central nervous system): same experimental conditions (topical instillation); for Duration of the effect / t (time corresponding to the maximum effect) / Δmax (maximum decrease of the intraocular pressure with respect to the basic value at time zero): 0.5% isotonic aqueous solution instilled in an eye. As for the experimental part: 2. Hypotensive activity in rabbits, after topical administration
The experiments were conducted using male New-Zealand rabbits (2 kg body weight) given "ad libitum" food and drink.
The animals are given a few days to get accustomed to the animal house, are conditioned to stabling in restraining boxes, and to the ocular pressure determinations, in order to prevent pressure deviations induced by stress and handling.
The intraocular pressure is determined with an ALCON aplanation pneumatonograph, standardized by means of an isolated cornea of rabbit, under water pressure.
The compounds are tested in isotonic aqueous solution, at pH 7.25 μl of an 0.5% solution are instilled in an eye, and the intraocular pressure is determined as a function of time.
Table below gives the maximum decrease of the intraocular pressure (Δ max) with respect to the basic value at time zero (time of instillation), the time corresponding to this maximum effect (t), and the total duration of the effect.

Series [2] relates to male Swiss mice (NMRI-Han). Description: Acute toxicity by the intraperitoneal route. It is filed as in vivo. The conditions noted are these: observation time 48 hours. On the procedure: The mice used are male Swiss mice (NMRI-Han) with an average body weight of 25 g.
The acute toxicity investigation was effected by the intraperitoneal route.
The compounds were injected in aqueous solution, at three dosage levels: 50, 100 and 200 mg/kg.
Table below gives the results obtained with compounds of the formula (I), after an observation time of 48 hours.
The results are expressed as number of dead animals vs. the total number of animals treated.

Series [3] addresses T1, platelet α2 adrenergic receptors (Oryctolagus cuniculus, UniProt Q5ZQK3).
T1 construct: from tissue; host or cells: platelet membranes from blood of male New Zealand albino rabbits
T1 sequence (Q5ZQK3 1-451): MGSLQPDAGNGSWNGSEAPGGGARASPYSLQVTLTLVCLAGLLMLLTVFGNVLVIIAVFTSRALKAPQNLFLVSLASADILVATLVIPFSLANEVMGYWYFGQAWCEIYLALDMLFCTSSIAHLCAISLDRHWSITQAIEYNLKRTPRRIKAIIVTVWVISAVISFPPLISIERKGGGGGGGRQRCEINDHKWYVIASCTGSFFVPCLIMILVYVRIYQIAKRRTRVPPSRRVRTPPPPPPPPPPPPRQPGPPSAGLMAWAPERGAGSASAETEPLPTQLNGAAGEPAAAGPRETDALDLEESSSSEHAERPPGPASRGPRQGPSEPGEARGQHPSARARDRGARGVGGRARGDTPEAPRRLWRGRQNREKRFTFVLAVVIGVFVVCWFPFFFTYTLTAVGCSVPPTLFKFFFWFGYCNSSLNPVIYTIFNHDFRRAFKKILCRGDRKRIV
The series can be described thus: Affinity for platelet α2 adrenergic receptors (inhibition of specific linking of tritiated dihydroergocryptine). Particulars: rabbit platelet membranes, tritiated DHE 7 nM, 30 minutes at 25° C.; read-out: CE50 (dosage required to inhibit 50 percent of the linking of tritiated DHE). It is filed as binding. As for the experimental part: 1. Affinity for platelet α2 adrenergic receptors
The compounds of the formula (I) were tested on the platelet adrenergic receptor of rabbit which is exclusively of α2 type (MICHEL T., Nature, 288, (5792) 709, 1980).
The affinity of said compounds for the α2 receptors is determined by measuring the inhibition of the specific linking of tritiated dihydroergocryptine (DHE) by the test compounds.
The rabbits used are male New-Zealand albino rabbits
Blood is taken by the intracardiac route, over ACD (an anticoagulant consisting of an aqueous solution containing 0.27 g citric acid, 0.5 g trisodium citrate and 0.02 g glucose per 20 ml water) at a rate of 1 volume ACD per 6 volumes blood.
The blood is centrifuged 10 minutes at 280 g and the supernatant (PRP) is collected. The PRP is centrifuged 15 minutes at 2000 g.
The platelet sediment is washed twice with buffer I (Tris 50 mM, NaCl 150 mM, EDTA 20 mM, pH 7.5) and is then re-suspended in buffer II (Tris 50 mM, EDTA 5 mM, pH 7.5).
This suspension is frozen at -40° C., and is then defrosted; the procedure is repeated twice. The suspension is then homogenized, after which it is centrifuged 10 minutes at 40,000 g, at 4° C.
The centrifugation sediment is washed with buffer II and is then re-suspended in this same buffer so that the final protein concentration is of the order of 1.5 mg/ml.
The inhibition tests are effected in a final volume of 0.2 ml of buffer II containing the tritiated DHE (7 nM) and varying concentrations of test compound.
The reaction is initiated by adding 0.2 mg proteins and is continued for 30 minutes at 25° C.
The incubation is terminated by adding 2 ml buffer II and by rapidly filtering this mixture in vacuo, through Whatman GF/C filters. The filters are rapidly washed with buffer II and the radioactivity bound to the filter is determined by liquid scintillation.
The dosage required to inhibit 50 percent of the linking of the […] DHE (CE50) is calculated for each of the test compounds.

Consider 13 compounds from patent US4665085A, “Amidines, preparation process and therapeutical application thereof” (Laboratoires Chauvin-Blache, priority 1983, dated 1987).

Molecules are shown by their SMILES.

In the case of `Clc1cccc(Cl)c1C=NNC1=NCCN1` [(2,6-dichlorobenzylidene-hydrazino)-2-imidazoline, reference compound], the “effect on pressure in the contralateral eye (evidence of an action at the level of the central nervous system)” value in series [1] was “concomitant decrease of the pressure in the contralateral eye”.

`Cc1cc(O)ccc1C=NNC1=NCCN1` [Compound 1]: in series [2] (100 mg/kg), the “number of dead animals vs. total number of animals treated” value is listed as 0/3. Further, the “number of dead animals vs. total number of animals treated” value in series [2] (200 mg/kg) is 0/3. Besides, the IC50 in series [3] stood at 3 µM. For the same compound, in series [1], the “Duration of the effect” value turned out to be 360 mn, the “t (time corresponding to the maximum effect)” value was 60 mn and the “Δmax (maximum decrease of the intraocular pressure with respect to the basic value at time zero)” value is listed as -3.12 ± 2.21 mm Hg.

For the compound `Cc1cc(N)ccc1C=NNC1=NCCN1` [Compound 2], the “number of dead animals vs. total number of animals treated” value in series [2] (100 mg/kg) is 0/3. In series [2] (200 mg/kg), the “number of dead animals vs. total number of animals treated” value is given as 3/3. Moreover, the IC50 in series [3] was 10 µM. Besides, in series [1], the “Duration of the effect” value is 300 mn, the “t (time corresponding to the maximum effect)” value is listed as 60 mn and the “Δmax (maximum decrease of the intraocular pressure with respect to the basic value at time zero)” value is listed as -4.12 ± 0.95 mm Hg.

Consider `CC(=NNC1=NCCN1)c1ccc(O)cc1C` [Compound 3], for which the “number of dead animals vs. total number of animals treated” value in series [2] (100 mg/kg) is recorded as 0/3. Moreover, in series [2] (200 mg/kg), the “number of dead animals vs. total number of animals treated” value was 3/3. Also, the IC50 in series [3] is 5.6 µM. For the same compound, in series [1], the “Duration of the effect” value was found to be 300 mn, the “t (time corresponding to the maximum effect)” value is recorded as 30 mn and the “Δmax (maximum decrease of the intraocular pressure with respect to the basic value at time zero)” value is -1.83 ± 1 mm Hg.

Take `COc1cc(O)ccc1C=NNC1=NCCN1` [Compound 4]: the “number of dead animals vs. total number of animals treated” value in series [2] (100 mg/kg) is 0/3. For the same compound, the “number of dead animals vs. total number of animals treated” value in series [2] (200 mg/kg) was 0/3. Moreover, the IC50 in series [3] was 3 µM. In addition, in series [1], the “Duration of the effect” value was 400 mn, the “t (time corresponding to the maximum effect)” value was determined as 60 mn and the “Δmax (maximum decrease of the intraocular pressure with respect to the basic value at time zero)” value is listed as -2.5 ± 0.57 mm Hg.

Consider `COc1cc(N)ccc1C=NNC1=NCCN1` [Compound 5], for which the “number of dead animals vs. total number of animals treated” value in series [2] (100 mg/kg) was 0/3. Besides, in series [3], the IC50 amounted to 14 µM. Moreover, in series [1], the “Duration of the effect” value worked out at 360 mn, the “t (time corresponding to the maximum effect)” value worked out at 120 mn and the “Δmax (maximum decrease of the intraocular pressure with respect to the basic value at time zero)” value is given as -3.9 ± 0.5 mm Hg.

For the compound `COc1cc(O)ccc1C(C)=NNC1=NCCN1` [Compound 6], the IC50 in series [3] stood at 2.5 µM.

In the case of `Cc1cc(O)ccc1C=NNC(=N)N` [Compound 7], the “number of dead animals vs. total number of animals treated” value is recorded as 0/3 in series [2] (100 mg/kg) and 3/3 in series [2] (200 mg/kg). Further, the IC50 in series [3] is 6.3 µM. For the same compound, the “t (time corresponding to the maximum effect)” value in series [1] is recorded as 60 mn. Moreover, the “Δmax (maximum decrease of the intraocular pressure with respect to the basic value at time zero)” value in series [1] is reported as -0.25 ± 1.7 mm Hg.

In the case of `Cc1cc(N)ccc1C=NNC(=N)N` [Compound 8], the “number of dead animals vs. total number of animals treated” value in series [2] (100 mg/kg) was 0/3; in series [2] (200 mg/kg), 3/3. Besides, in series [3], the IC50 was 32 µM.

`COc1cc(O)ccc1C=NNC(=N)N` [Compound 9]: the “number of dead animals vs. total number of animals treated” value in series [2] (50 mg/kg) is 0/3; in series [2] (100 mg/kg), 3/3; in series [2] (200 mg/kg), 3/3. Moreover, in series [3], the IC50 turned out to be 8 µM.

Turning to `CC(=NNC(=N)N)c1ccc(O)cc1C` [Compound 10], the “number of dead animals vs. total number of animals treated” value is 0/3 in series [2] (100 mg/kg) and 2/3 in series [2] (200 mg/kg). In series [3], the IC50 amounted to 11 µM.

Consider `COc1cc(O)ccc1C(C)=NNC(=N)N` [Compound 11], for which the IC50 in series [3] turned out to be 1.3 µM.

In the case of `Clc1cccc(Cl)c1N=C1NCCN1` [clonidine, 2,6-dichloro-anilino-2-imidazoline, reference compound], the “effect on pressure in the contralateral eye (evidence of an action at the level of the central nervous system)” value in series [1] was “concomitant decrease of the pressure in the contralateral eye”.
